Assay results from patent US20040204577A1, “Novel peptide-forming enzyme gene” (Ajinomoto Co., Inc., priority 2003, published 2004).
Where a SMILES comes first, the peptide text is derived from it.

System: microbial cells of Sphingobacterium sp. strain FERM BP-8124
Experiment: Production of L-alanyl-L-glutamine using microbial cells of Sphingobacterium sp.
Type: cell-based
Settings: 0.1 mL cell suspension (100 g/L) + 0.1 mL buffer with 200 mM L-alanine methyl ester hydrochloride, 400 mM L-glutamine; pH 9.0, 25° C., 120 minutes
Experimental: A 50 ml medium (pH 7.0) containing 5 g of glucose, 5 g of ammonium sulfate, 1 g of monopotassium phosphate, 3 g of dipotassium phosphate, 0.5 g of magnesium sulfate, 10 g of yeast extract, and 10 g of peptone in 1 L was transferred to a 500 mL Sakaguchi flask and sterilized at 11 5° C. for 15 minutes for culturing Sphingobacterium sp. strain FERM BP-8124 (Depositary institution: the independent administrative corporation, National Institute of Advanced Industrial Science and Technology, International Patent Organism Depositary, Address of depositary institution: Chuo Dai-6, 1-1 Higashi 1-Chome, Tsukuba-shi, Ibaraki-ken, Japan, International deposit date: Jul. 22, 2002). This medium was then inoculated with one loopful cells of Sphingobacterium sp. strain FERM BP-8124 (Depositary institution: the independent administrative corporation, National Institute of Advanced Industrial Science and Technology, International Patent Organism Depositary, Address of depositary institution: Chuo Dai-6, 1-1 Higashi 1-Chome, Tsukuba-shi, Ibaraki-ken, Japan, International deposit date: Jul. 22, 2002) cultured at 30° C. for 24 hours in a slant agar medium (agar: 20 g/L, pH 7.0) containing 5 g of glucose, 10 g of yeast extract, 10 g of peptone and 5 g of NaCl in 1 L, followed by shake culturing at 30° C. for 20 hours and 120 strokes/minute. […]

Work on `C[C@H](N)C(=O)N[C@@H](CCC(N)=O)C(=O)O` [L-Ala-L-Gln, L-alanyl-L-glutamine] (H-Ala-Gln-OH) yielded a L-alanyl-L-glutamine formed of 62 mM.
